Data from US20160312315A1, “Methods and Compositions for Determining Virus Susceptibility to Integrase Inhibitors” (Laboratory Corporation of America Holdings, priority 2011, published 2016).

How the values were obtained:
Format in all cases: cell-based, HIV-1
[1] = tested on: Y143R plus T97A site directed mutant virus; assay: PhenoSense raltegravir susceptibility assay, site directed mutant viruses; conditions: SDM virus vs NL4-3
Description: (§1) Raltegravir susceptibility tests performed with resistance test vectors were carried out using packaging host and target host cells consisting of the human embryonic kidney cell line 293. Susceptibility tests were carried out with the RTV libraries by using viral particles comprising the RTV libraries to infect a host cell in which the expression of the indicator gene is measured. The amount of indicator gene (luciferase) activity detected in infected cells is used as a direct measure of “infectivity,” i.e., the ability of the virus to complete a single round of replication. Thus, drug susceptibility can be determined by plotting the amount of luciferase activity produced by patient derived viruses in the presence of varying concentrations of the antiviral drug. By identifying the concentration of drug at which luciferase activity is half-maximum, the IC50 of the virus from which patient-derived segment(s) were obtained for the antiretroviral agent can be determined. The IC50 provides a direct measure of the susceptibility of the HIV infecting the patient to raltegravir.
(§2) In the susceptibility tests, packaging host (293) cells were seeded in 10-cm-diameter dishes and were transfected one day after plating with test vector plasmid DNA and the envelope expression vector. Transfections were performed using a calcium-phosphate co-precipitation procedure. The cell culture media containing the DNA precipitate was replaced with fresh medium, from one to 24 hours, after transfection. […] Alternatively, cells were lysed, and luciferase was measured by adding Steady-Glo (Promega Corp.; Madison, Wis.) reagent directly to each well without aspirating the culture media from the well. […]
(§3) Site directed mutant (SDM) viruses were created that had only the specific integrase mutation listed on the x-axis of FIG. 8A, 8B, or 8C. FIGS. 8A, 8B, and 8C are graphs showing the fold change (FC) in raltegravir susceptibility of the SDM viruses, as compared to the raltegravir susceptibility of an NL4-3 virus and determined by the PhenoSense assay. […]

[2] = tested on: Y143R site directed mutant virus; assay: as above; conditions: Y143R mutation alone, SDM virus vs NL4-3
Description: as §1, §2, §3

[3] = tested on: other Y143X (Y143H/C/S/G) site directed mutant viruses; assay: as above; conditions: other Y143X substitutions alone, SDM viruses vs NL4-3
Description: as §1, §2, §3

[4] = tested on: other Y143X plus T97A site directed mutant viruses
Description: (§4) Raltegravir susceptibility tests performed with resistance test vectors were carried out using packaging host and target host cells consisting of the human embryonic kidney cell line 293. Susceptibility tests were carried out with the RTV libraries by using viral particles comprising the RTV libraries to infect a host cell in which the expression of the indicator gene is measured. The amount of indicator gene (luciferase) activity detected in infected cells is used as a direct measure of “infectivity,” i.e., the ability of the virus to complete a single round of replication. Thus, drug susceptibility can be determined by plotting the amount of luciferase activity produced by patient derived viruses in the presence of varying concentrations of the antiviral drug. By identifying the concentration of drug at which luciferase activity is half-maximum, the IC50 of the virus from which patient-derived segment(s) were obtained for the antiretroviral agent can be determined. […]
(§5) In the susceptibility tests, packaging host (293) cells were seeded in 10-cm-diameter dishes and were transfected one day after plating with test vector plasmid DNA and the envelope expression vector. […] Alternatively, cells were lysed, and luciferase was measured by adding Steady-Glo (Promega Corp.; Madison, Wis.) reagent directly to each well without aspirating the culture media from the well. […]

[5] = tested on: Y143C/G/S plus S230R site directed mutant viruses; assay: PhenoSense raltegravir susceptibility assay, site directed mutant viruses; conditions: SDM viruses vs NL4-3
Description: as §4, §5

[6] = tested on: Y143R plus S230R site directed mutant virus; assay: as above; conditions: SDM virus, compared with Y143R alone
Description: as §4, §5

Cc1nnc(C(=O)NC(C)(C)c2nc(C(=O)NCc3ccc(F)cc3)c(O)c(=O)n2C)o1 [raltegravir]
fold change in IC50 (FC), reduction in RAL susceptibility [1]: 70 | fold change in IC50 (FC), reduction in RAL susceptibility [2]: 20 | fold change in IC50 (FC), reduction in RAL susceptibility [3]: 3-6 | fold change in IC50 (FC), reduction in RAL susceptibility [4]: 7-16 | fold change in IC50 (FC), reduction in RAL susceptibility [5]: 15-24 | further reduction in RAL susceptibility on addition of S230R [6]: did not
